Experimental data published in PubChem BioAssay (NCI).
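96-well plates; 48 h exposure; 5 concentrations. Endpoints by linear interpolation between flanking doses. Not reached: highest tested concentration assigned. Here, GI50 denotes the concentration required for 50% inhibition of growth. TGI denotes the concentration required for complete inhibition of growth.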

Columns and labels:
Experiment in all cases: NCI anticancer screen, dose series, 48 h
[1] = test system: 786-0 renal
[2] = test system: HCC-2998 colon
[3] = test system: HOP-62 NSCLC
[4] = test system: LOX IMVI melanoma
[5] = test system: M14 melanoma
[6] = test system: MALME-3M melanoma
[7] = test system: MDA-MB-231 breast
[8] = test system: NCI/ADR-RES ovarian
[9] = test system: SK-MEL-28 melanoma
[10] = test system: SR leukemia

Row | SMILES | GI50 [1] [µM] | TGI [1] [µM] | GI50 [2] [µM] | TGI [2] [µM] | GI50 [3] [µM] | TGI [3] [µM] | GI50 [4] [µM] | TGI [4] [µM] | GI50 [5] [µM] | TGI [5] [µM] | GI50 [6] [µM] | TGI [6] [µM] | GI50 [7] [µM] | TGI [7] [µM] | GI50 [8] [µM] | TGI [8] [µM] | GI50 [9] [µM] | TGI [9] [µM] | GI50 [10] [µM] | TGI [10] [µM]
1 | COc1ccc(N2C(C)=C(C#N)C34C(=O)N(c5ccccc5)C(=O)C3=C(O)C=CC24O)cc1 (stereo not given) | 19 | 65.8 | 9.88 | 23.6 | 22.7 | 75.8 | 5.24 | 18.8 | 13.6 | 38.6 | 19.2 | 53.4 | 14.5 | 29.8 | 29 | 91 | 12 | 30.1 | 5.98 | 50.4
2 | C[C@@H](C(=O)Nc1ccc(Cl)cc1)C1CCC(c2ccnc3ccc(F)cc23)CC1 (stereo not given in full) | 4.31 | > 100 | 4.35 | 24.3 | 19.4 | > 100 | 5.85 | 21.3 | 7.12 | > 100 | 9.83 | 60 | 7.83 | 48 | 10.1 | 48 | 10.4 | > 100 | 2.23 | 12.1
3 | COc1cccc(/C=C/C(=O)c2cccc(Nc3nc(Nc4ccccc4)nc(Nc4ccccc4)n3)c2)c1 | 18.6 | > 65.5 | 7.35 | 26.2 | > 46.9 | > 78.1 | 7.04 | 21.3 | 19.3 | > 72.2 | > 48.7 | > 100 | 32.7 | > 100 | 27.3 | > 100 | 20.8 | 56.2 | 1.89 | 9.13
4 | COc1c(CCC[P+](c2ccccc2)(c2ccccc2)c2ccccc2)cc2c(c1OC)OCO2 | 3.91 | 26.9 | 2.22 | 14.6 | 3.42 | 14.5 | 2.4 | 10.4 | 2.22 | 19.2 | 0.599 | 10.2 | 2.14 | 10.9 | > 100 | > 100 | 0.769 | 14.8 | 1.07 | 15
5 | CC/C=C\C=C/C(=O)N/C=C/CC1Cc2cccc(O)c2C(=O)O1 (stereo not given) | 25.2 | 73.8 | 19.2 | 43.5 | 14.5 | 50.5 | 13.3 | 26.5 | 22.7 | 64.2 | 41.5 | > 100 | 17 | 39 | 35.5 | > 100 | 17.4 | 58.7 | 2.22 | 6.2
6 | CCN(CC)S(=O)(=O)c1ccc(OC)c(Nc2ncc(-c3ccccc3)o2)c1 | 22.8 | > 25 | > 25 | > 25 | > 20.1 | > 25 | > 22.6 | > 25 | > 25 | > 25 | > 25 | > 25 | > 13.9 | > 25 | > 17.8 | > 25 | > 25 | > 25 | > 14.1 | > 25
7 | CCN1C(=O)N(CC)C2C1NN=c1s/c(=C\c3cccnc3)c(=O)n12 (stereo not given) | 0.695 | > 100 | 1.29 | > 100 | 0.628 | > 100 | 0.543 | > 100 | 0.298 | > 100 | 0.599 | > 100 | 3.57 | > 95.3 | 0.38 | > 100 | 0.957 | > 100 | 0.132 | > 100
8 | Cc1occc1C(=S)Nc1ccc(Cl)c(COC(C)(C)C)c1 | – | 30.3 | – | 32.2 | – | 44.9 | – | 34 | – | 43.5 | – | 31.1 | – | 32 | – | 33.4 | – | 30.1 | – | 41.8
9 | COC(=O)[C@]12CC[C@@H](C)[C@H](C)[C@@H]1C1=CC[C@@H]3[C@@]4(C)C[C@@H](OC(C)=O)[C@H](O)[C@@](C)(COC(C)=O)[C@@H]4[C@H](O)C[C@@]3(C)[C@]1(C)CC2 | 1.89 | 4.84 | 2.14 | 4.57 | 1.89 | 4.1 | 1.64 | 3.1 | 1.96 | 5.09 | 2.36 | 6.25 | 1.87 | 4.81 | 2.68 | 7.54 | 2.42 | 6.7 | 1.72 | 4.31
10 | CNC(=O)n1ccc2cc(Oc3ccnc(NC(=O)c4ccc(C5CCN(CCO)CC5)cc4)c3)c(OCCOC)cc21 | 1.94 | 4.38 | 8.57 | 21.3 | 4.56 | 18.6 | 1.77 | 3.7 | 1.98 | 4.24 | 1.62 | 3.15 | 2.46 | 6.11 | 12.9 | 42.4 | 6.33 | 19.2 | 2.27 | 25
11 | Cc1ccc(S(=O)(=O)N2CCSCCSCCSCCSCC2)cc1 | – | 40.2 | – | > 100 | – | > 57 | – | > 100 | – | > 100 | – | > 100 | – | 56.6 | – | 77.1 | – | > 100 | – | > 100
12 | COC1(C(=O)N[C@@H](C)c2ccc(-n3cc(F)cn3)nc2)CCC(c2nc(C)cc(Nc3cc(C)[nH]n3)n2)CC1 (stereo not given in full) | 1.33 | 8 | 11.1 | 23.3 | 1.34 | 14.6 | 0.714 | 2.54 | 3.03 | 17.7 | 5.87 | 21.7 | 1.14 | 4.69 | 3.74 | 17.7 | 10.2 | 22.5 | 6.14 | > 100
